Assays:
[1] = target: T1, HCV genotype 1b (BK) NS3 modified enzyme with a R155K mutation (Hepatitis C virus genotype 1b, UniProt P26663, R1181K); assay: HCV NS3 protease time-resolved fluorescence (TRF) assay, genotype 1b R155K; assay type: biochemical; settings: Ki 1b R155K, genotype 1b (BK) NS3 R155K; single value
T1 construct: HCV genotype 1b (BK) NS3 modified enzyme
How it was run: (§1)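 NS3/NS4A protease was pre-incubated 10 min with inhibitor in 50 mM HEPES pH 7.5, 150 mM NaCl, 15% glycerol, 0.15% Triton X-100, 10 mM DTT, 0.1% PEG 8000. TRF peptide substrate (25 nM final) was hydrolysed for 6 h at room temperature. IC50 came from four-parameter fits.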

[2] = target: HCV NS3 protease genotype 3a (3A-1) (Hepatitis C virus genotype 3a, UniProt Q81258); assay: HCV NS3 protease time-resolved fluorescence (TRF) assay, genotype 3a; assay type: biochemical; settings: Ki 3a
How it was run: as §1

`C=C[C@@H]1C[C@]1(NC(=O)[C@@H]1C[C@@H]2CN1C(=O)[C@H](C1CCCCC1)NC(=O)O[C@@H]1C[C@H]1CCCCCc1c(nc3ccccc3c1OC1CCN(C)CC1)O2)C(=O)NS(=O)(=O)C1(C)CC1` [Example 211, (1aR,5S,8S,10R,22aR)-5-cyclohexyl-N-[(1R,2S)-2-ethenyl-1-{[(1-methylcyclopropyl)sulfonyl]carbamoyl}cyclopropyl]-17-[(1-methylpiperidin-4-yl)oxy]-3,6-dioxo-1,1a,3,4,5,6,9,10,18,19,20,21,22,22a-tetradecahydro-8H-7,10-methanocyclopropa[18,19][1,10,3,6] dioxadiazacyclononadecino[11,12-b]quinoline-8-carboxamide] was tested, and the Ki [1] was 33 pM and the Ki [2] was 300 pM.

`C=C[C@@H]1C[C@]1(NC(=O)[C@@H]1C[C@@H]2CN1C(=O)[C@H](C(C)(C)C)NC(=O)O[C@@H]1C[C@H]1CCCCCc1c(nc3c(F)cccc3c1OCCN1CCC1)O2)C(=O)NS(=O)(=O)C1(C)CC1` [Example 212, (1aR,5S,8S,10R,22aR)-17-[2-(azetidin-1-yl)ethoxy]-5-tent-butyl-N-[(1R,2S)-2-ethenyl-1-{[(1-methylcyclopropyl)sulfonyl]carbamoyl}cyclopropyl]-13-fluoro-3,6-dioxo-1,1a,3,4,5,6,9,10,18,19,20,21,22,22a-tetradecahydro-8H-7,10-methanocyclopropa[18,19][1,10,3,6] dioxadiazacyclononadecino[11,12-b]quinoline-8-carboxamide] was tested, and the Ki [1] was 220 pM and the Ki [2] was 1900 pM.

In the case of `C=C[C@@H]1C[C@]1(NC(=O)[C@@H]1C[C@@H]2CN1C(=O)[C@H](C(C)(C)C)NC(=O)O[C@@H]1C[C@H]1CCCCCc1c(nc3c(F)cccc3c1OCCN1CCCCC1)O2)C(=O)NS(=O)(=O)C1(C)CC1` [Example 213, (1aR,5S,8S,10R,22aR)-5-tent-butyl-N-[(1R,2S)-2-ethenyl-1-{[(1-methylcyclopropyl)sulfonyl]carbamoyl}cyclopropyl]-13-fluoro-3,6-dioxo-17-[2-(piperidin-1-yl)ethoxy]-1,1a,3,4,5,6,9,10,18,19,20,21,22,22a-tetradecahydro-8H-7,10-methanocyclopropa[18,19][1,10,3,6] dioxadiazacyclononadecino[11,12-b]quinoline-8-carboxamide], the Ki [1] is reported as 360 pM and the Ki [2] is reported as 3800 pM.

With `C=C[C@@H]1C[C@]1(NC(=O)[C@@H]1C[C@@H]2CN1C(=O)[C@H](C(C)(C)C)NC(=O)O[C@@H]1C[C@H]1CCCCCc1c(nc3c(F)cccc3c1OCCn1ccnc1)O2)C(=O)NS(=O)(=O)C1(C)CC1` [Example 214, (1aR,5S,8S,10R,22aR)-5-tert-butyl-N-[(1R,2S)-2-ethenyl-1-{[(1-methylcyclopropyl)sulfonyl]carbamoyl}cyclopropyl]-13-fluoro-17-[2-(1H-imidazol-1-yl)ethoxy]-3,6-dioxo-1,1a,3,4,5,6,9,10,18,19,20,21,22,22a-tetradecahydro-8H-7,10-methanocyclopropa[18,19][1,10,3,6] dioxadiazacyclononadecino[11,12-b]quinoline-8-carboxamide] the Ki [1] was 21 pM and the Ki [2] was 1200 pM.

Compound `C=C[C@@H]1C[C@]1(NC(=O)[C@@H]1C[C@@H]2CN1C(=O)[C@H](C1CCCCC1)NC(=O)O[C@@H]1C[C@H]1CCCCCc1c(nc3c(OC)cccc3c1OCC1CN(C(=O)OC(C)(C)C)C1)O2)C(=O)NS(=O)(=O)C1(C)CC1` [Example 215, tent-butyl 3-[({(1aS,5R,8S,10R,22aR)-5-cyclohexyl-8-[(2-ethenyl-1-{[(1-methylcyclopropyl)sulfonyl]carbamoyl}cyclopropyl)carbamoyl]-13-methoxy-3,6-dioxo-1,1a,3,4,5,6,9,10,18,19,20,21,22,22a-tetradecahydro-8H-7,10-methanocyclopropa[18,19][1,10,3,6]dioxadiazacyclononadecino[11,12-b]quinolin-1'7-yl}oxy)methyl]azetidine-1-carboxylate] has a Ki [1] of 1700 pM and a Ki [2] of 55000 pM.

`C=C[C@@H]1C[C@]1(NC(=O)[C@@H]1C[C@@H]2CN1C(=O)[C@H](C1CCCCC1)NC(=O)O[C@@H]1C[C@H]1CCCCCc1c(nc3c(OC)cccc3c1OCCN1CCCCC1)O2)C(=O)NS(=O)(=O)C1(C)CC1` [Example 216, (1aR,5S,8S,10R,22aR)-5-cyclohexyl-N-[(1R,2S)-2-ethenyl-1-{[(1-methylcyclopropyl)sulfonyl]carbamoyl}cyclopropyl]-13-methoxy-3,6-dioxo-17-[2-(piperidin-1-yl)ethoxy]-1,1a,3,4,5,6,9,10,18,19,20,21,22,22a-tetradecahydro-8H-7,10-methanocyclopropa[18,19][1,10,3,6] dioxadiazacyclononadecino[11,12-b]quinoline-8-carboxamide] showed a Ki [1] of 240 pM and a Ki [2] of 6400 pM.

In the case of `C=C[C@@H]1C[C@]1(NC(=O)[C@@H]1C[C@@H]2CN1C(=O)[C@H](C(C)(C)C)NC(=O)O[C@@H]1C[C@H]1CCCCCc1c(nc3ccccc3c1OCCc1ccccn1)O2)C(=O)NS(=O)(=O)C1(C)CC1` [Example 217, (1aR,5S,8S,10R,22aR)-5-tert-butyl-N-[(1R,2S)-2-ethenyl-1-{[(1-methylcyclopropyl)sulfonyl]carbamoyl}cyclopropyl]-3,6-dioxo-17-[2-(pyridin-2-yl)ethoxy]-1,1a,3,4,5,6,9,10,18,19,20,21,22,22a-tetradecahydro-8H-7,10-methanocyclopropa[18,19][1,10,3,6] dioxadiazacyclononadecino[11,12-b]quinoline-8-carboxamide], the Ki [1] is reported as 270 pM and the Ki [2] is reported as 7100 pM.

In the case of `C=C[C@@H]1C[C@]1(NC(=O)[C@@H]1C[C@@H]2CN1C(=O)[C@H](C(C)(C)C)NC(=O)O[C@@H]1C[C@H]1CCCCCc1c(nc3ccccc3c1OCCc1cccnc1)O2)C(=O)NS(=O)(=O)C1(C)CC1` [Example 218, (1aR,5S,8S,10R,22aR)-5-tert-butyl-N-[(1R,2S)-2-ethenyl-1-{[(1-methylcyclopropyl)sulfonyl]carbamoyl}cyclopropyl]-3,6-dioxo-17-[2-(pyridin-3-yl)ethoxy]-1,1a,3,4,5,6,9,10,18,19,20,21,22,22a-tetradecahydro-8H-7,10-methanocyclopropa[18,19][1,10,3,6] dioxadiazacyclononadecino[11,12-b]quinoline-8-carboxamide], the Ki [1] is reported as 35 pM and the Ki [2] is reported as 2600 pM.

`C=C[C@@H]1C[C@]1(NC(=O)[C@@H]1C[C@@H]2CN1C(=O)[C@H](C(C)(C)C)NC(=O)O[C@@H]1C[C@H]1CCCCCc1c(nc3ccccc3c1OCCc1ccncc1)O2)C(=O)NS(=O)(=O)C1(C)CC1` [Example 219, (1aR,5S,8S,10R,22aR)-5-tert-butyl-N-[(1R,2S)-2-ethenyl-1-{[(1-methylcyclopropyl)sulfonyl]carbamoyl}cyclopropyl]-3,6-dioxo-17-[2-(pyridine-4-yl)ethoxy]-1,1a,3,4,5,6,9,10,18,19,20,21,22,22a-tetradecahydro-8H-7,10-methanocyclopropa[18,19][1,10,3,6] dioxadiazacyclononadecino[11,12-b]quinoline-8-carboxamide] was tested, and the Ki [1] was 120 pM and the Ki [2] was 1900 pM.

With `C=C[C@@H]1C[C@]1(NC(=O)[C@@H]1C[C@@H]2CN1C(=O)[C@H](C(C)(C)C)NC(=O)O[C@@H]1C[C@H]1CCCCCc1c(nc3ccccc3c1OC1CCN(C3CC3)CC1)O2)C(=O)NS(=O)(=O)C1(C)CC1` [Example 220, (1aR,5S,8S,10R,22aR)-5-tert-butyl-17-[(1-cyclopropylpiperidin-4-yl)oxy]-N-[(1R,2S)-2-ethenyl-1-{[(1-methylcyclopropyl)sulfonyl]carbamoyl}cyclopropyl]-3,6-dioxo-1,1a,3,4,5,6,9,10,18,19,20,21,22,22a-tetradecahydro-8H-7,10-methanocyclopropa[18,19][1,10,3,6] dioxadiazacyclononadecino[11,12-b]quinoline-8-carboxamide] the Ki [1] was 290 pM and the Ki [2] was 3900 pM.

`C=C[C@@H]1C[C@]1(NC(=O)[C@@H]1C[C@@H]2CN1C(=O)[C@H](C(C)(C)C)NC(=O)O[C@@H]1C[C@H]1CCCCCc1c(nc3ccccc3c1OC[C@H]1CNCCO1)O2)C(=O)NS(=O)(=O)C1(C)CC1` [Example 221, (1aR,5S,8S,10R,22aR)-5-tert-butyl-N-[(1R,2S)-2-ethenyl-1-{[(1-methylcyclopropyl)sulfonyl]carbamoyl}cyclopropyl]-17-[(2R)-morpholin-2-ylmethoxy]-3,6-dioxo-1,1a,3,4,5,6,9,10,18,19,20,21,22,22a-tetradecahydro-8H-7,10-methanocyclopropa[18,19][1,10,3,6]dioxadiazacyclononadecino[11,12-b]quinoline-8-carboxamide] gave a Ki [1] of 50 pM and a Ki [2] of 1400 pM.

`C=C[C@@H]1C[C@]1(NC(=O)[C@@H]1C[C@@H]2CN1C(=O)[C@H](C(C)(C)C)NC(=O)O[C@@H]1C[C@H]1CCCCCc1c(nc3ccccc3c1OC1CNC1)O2)C(=O)NS(=O)(=O)C1(C)CC1` [Example 222, (1aR,5S,8S,10R,22aR)-17-(azetidin-3-yloxy)-5-tert-butyl-N-[(1R,2S)-2-ethenyl-1-{[(1-methylcyclopropyl)sulfonyl]carbamoyl}cyclopropyl]-3,6-dioxo-1,1a,3,4,5,6,9,10,18,19,20,21,22,22a-tetradecahydro-8H-7,10-methanocyclopropa[18,19][1,10,3,6]dioxadiazacyclononadecino[11,12-b]quinoline-8-carboxamide] gave a Ki [1] of 45 pM and a Ki [2] of 440 pM.

`C=C[C@@H]1C[C@]1(NC(=O)[C@@H]1C[C@@H]2CN1C(=O)[C@H](C(C)(C)C)NC(=O)O[C@@H]1C[C@H]1CCCCCc1c(nc3ccccc3c1OC1CN(CC3CC3)C1)O2)C(=O)NS(=O)(=O)C1(C)CC1` [Example 223, (1aR,5S,8S,10R,22aR)-5-tert-butyl-17-{[1-(cyclopropylmethyl)azetidin-3-yl]oxy}-N-[(1R,2S)-2-ethenyl-1-{[(1-methylcyclopropyl)sulfonyl]carbamoyl}cyclopropyl]-3,6-dioxo-1,1a,3,4,5,6,9,10,18,19,20,21,22,22a-tetradecahydro-8H-7,10-methanocyclopropa[18,19][1,10,3,6]dioxadiazacyclononadecino[11,12-b]quinoline-8-carboxamide] gave a Ki [1] of 55 pM and a Ki [2] of 1200 pM.
